How the values were obtained:
[1] = tested on: remyelination in cuprizone/rapamycin-induced demyelination; test: Mouse cuprizone/rapamycin-induced demyelination model (Black-gold II staining); type: in vivo, C57BL/6 mice; details: 30 mg/kg orally b.i.d. 9 days, n=7, P<0.05
Method: The ability of Example compound 2 to enhance in vivo remyelination was determined with the mouse cuprizone/rapamycin-induced demyelination model.
The cuprizone plus rapamycin model was conducted with the protocol as follows: rapamycin was dissolved in 100% ethanol and stored at −20° C. until use. Immediately before injection, the rapamycin was diluted in vehicle solution to get a final concentration in 5% PEG-400, 5% Tween 80, and 4% ethanol. The C57BL/6 mice at age of 8 weeks were fed with powder mouse food mixed freshly with 0.2% cuprizone (w/w) and received daily intraperitoneal injection of rapamycin (10 mg/kg body weight) for 5 weeks to induce demyelination, then animals were allowed to recover (removal of cuprizone from the diet and rapamycin injection) and administrated with Example compound 2, at 30 mg/kg body weight orally, b.i.d. for an additional 9 days prior to sacrifice. The brain samples were collected for pathologic analysis. […]
Mice were deeply anesthetized and quickly perfused with 0.9% saline via the left cardiac ventricle to drain out blood. […] The sections were monitored to determine the extent of staining. […]
Image-Pro 6.3 software (Media Cybernetics, USA) was used for subsequent quantitative evaluation. […] For measurement of mean density, areas and IOD in central corpus callosum or cortex were calculated after all digital images were set under the same colour range. […]

[2] = biological target: T1, human recombinant H3 receptor (Homo sapiens, UniProt Q9Y5N1); test: GTPγS binding assay (basal binding, HEK-293-GαO membranes); type: biochemical; details: 100 nM-0.001 nM, absence of H3R agonist, 3 independent experiments; read-out: pEC50, inhibition of basal GTPγS binding (converted)
T1 construct: host or cells: HEK-293-GαO cells transduced with BacMam virus; membranes prepared
Method: The effect of Example compound 1 on basal GTPγS binding to the H3R receptor was determined in the GTPγS binding assay.
Human embryonic kidney 293 cells stably expressing G protein GαO (HEK-293-GO) were maintained in minimum essential medium (MEM) supplemented with Earle's salts, 2 mM L-glutamine, […] geneticin and 10% foetal bovine serum at 37-8° C., 5% CO2 in a humidified environment. Exponentially growing cells were infected with BacMam virus encoding the human recombinant H3 receptor (Biocat: Virus 96801) as follows. Cells were detached from flasks in PBS and collected by centrifugation at 200×g for 5 min at room temperature. […]
Cell membranes were diluted to ˜1 mg/ml in assay buffer (20 mM HEPES, 100 mM NaCl, 10 mM MgCl2, pH 7.4) and incubated with wheat germ agglutinin scintillation proximity assay (SPA) beads (Amersham Biosciences) for 45 min, after which GDP ([…]) was added. […] Non-specific binding was determined by the inclusion of 0.6 mM GTPγS. […] Filters were washed twice with 4 ml ice-cold water and bound […] on the filters was measured by scintillation counting on a Wallac 1450 Microbeta Trilux counter.
The data was analyzed and presented as fold change of the number of the vehicle control well (DMSO). […]

T1 sequence (Q9Y5N1 whole entry): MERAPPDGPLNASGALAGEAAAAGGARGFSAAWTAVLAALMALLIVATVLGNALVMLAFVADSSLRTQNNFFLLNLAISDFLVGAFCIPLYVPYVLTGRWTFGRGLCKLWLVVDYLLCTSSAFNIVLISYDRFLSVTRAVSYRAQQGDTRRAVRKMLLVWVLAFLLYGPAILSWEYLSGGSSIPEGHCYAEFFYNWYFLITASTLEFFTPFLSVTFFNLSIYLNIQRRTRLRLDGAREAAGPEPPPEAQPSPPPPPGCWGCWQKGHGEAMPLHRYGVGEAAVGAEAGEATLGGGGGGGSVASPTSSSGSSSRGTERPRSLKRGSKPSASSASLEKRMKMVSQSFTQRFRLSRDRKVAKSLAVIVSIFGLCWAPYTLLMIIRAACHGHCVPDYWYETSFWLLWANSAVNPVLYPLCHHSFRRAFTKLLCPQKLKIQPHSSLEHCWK

SMILES | mean intensity of Black-gold II staining, forebrain corpus callosum ([1]; vehicle 14.65%) [%] | mean intensity of Black-gold II staining, forebrain cortex ([1]; vehicle 40.79%) [%] | EC50 [2] [nM]
c1cc2c(cc1-c1noc(CC3CCN(C4CCC4)CC3)n1)OCO2 [Example compound 2, 3-(benzo[d][1,3]dioxol-5-yl)-5-((1-cyclobutylpiperidin-4-yl)methyl)-1,2,4-oxadiazole] | 27.68±5.44 | 60.05±6.28 | –
O=C1CCCN1c1ccc(Oc2ccc3c(c2)CCN(C2CCC2)CC3)nc1 [Example compound 1, 1-{6-[(3-cyclobutyl-2,3,4,5-tetrahydro-1H-3-benzazepin-7-yl)oxy]-3-pyridinyl}-2-pyrrolidinone] | – | – | 0.112
